Positions of bridges follow the written chain, without caps; N, C: chain ends. Non-standard residues stand in square brackets, D forms with d. Residues, ends and D or L forms follow the SMILES beside them. No end group written: not given here. Cy5.5 = near-infrared dye, attached as Cy5.5-NHS ester; βAla = NCCC(=O)O
Assays:
[1] = In vivo and ex vivo NIRF brain imaging after ip injection, wild-type mice; settings: for ability to penetrate the blood brain barrier: single ip administration, wild-type mice, NIR fluorescence
Protocol: For in vivo imaging experiments, 6-12 month-old TgCRND8, age-matched wild-type littermate, and heterozygous CTR knockdown mice (50% CTR expression level compared to wild type control mice and presumably with 50% AMY receptor expression level) were used (n=5 in each group). The animals were anesthetized with ketamine ip injection. The fur was shaved from the head and dorsal side of the body to avoid laser scattering caused by hair. […] Wild type mice injected with 200 μl saline were used as a background.
Images were acquired with a Kodak IS2000MM Image station (GE Healthcare Systems/ART Inc.), excitation filter 625/20 band pass, emission filter 700 W band pass, light source was 150 W quartz halogen lamp set to 100 (max). Images were captured with a CCD camera set to F stop=0, FOV=150, FP=0. Exposure time was 2 min per image for NIRF image and 1 s for visible image. To evaluate for fluorescence concentration, the region of interest was drawn around the brain region and analyzed using the Kodak ID 3.6 software and the mean fluorescence intensity was recorded.

[2] = In vivo pharmacokinetics and bio-distribution of cAC253
Protocol: There were 3 mice in each dose group. After 2 hours the mice were sacrificed to collect their brains which were imaged in a Kodak imager. […] The heart, liver, lung, spleen, intestine, stomach, kidney and brain were excised after perfusion with PBS, and kept in dry ice before Kodak imaging. Fluorescence was quantified, and analyzed as previously.

[3] = Lipophilicity, shake flask 1-octanol/water partition; format: physicochemical
Protocol: Peptides hydrophobicity was determined using the shake flask method and 1-octanol/water partition coefficient (log Po/w) was determined. […] Peptide concentration (area) in both phases (1-octanol and water) were analyzed by RP-HPLC. The final log Po/w value was calculated by dividing the concentration (C) of the peptide in the two phases as presented by the area under the peak (partition coefficients=C1-octanol/Cwater).

[4] = In vivo competition with unlabeled cAC253, ex vivo brain fluorescence; set-up: species or system mouse; settings: 40 μg Cy5.5 cAC253 + 5-fold excess (200 μg) unlabeled cAC253 ip, 2 hr
Protocol: Additionally, a competition in vivo experiment was also carried out. […] Brains were then extracted and scanned ex-vivo for fluorescence concentration. For ex vivo histological study, brains were excised and embedded in OCT, then sliced into 20-μm slices, co-stained with DAPI in mounting medium.

[5] = Peptide stability in human serum; format: in vitro ADME; settings: 37° C.
Protocol: For the serum stability experiments, human serum or liver homogenate (250 μL) were added to DMEM medium (650 μL) in a 1.5 mL Eppendorf tube to mimic a biological system. The temperature was equilibrated at 37±1° C. for 30 minutes before adding 100 μL of the peptide stock solution (1 mM solution in 10% DMSO in sterile water). An aliquot of reaction solution (100 μL) was removed from the sample at different time points 0, 3, 5, 10, 20, and 30 minutes added to pure methanol (300 μL) for precipitation of the serum proteins present in the human serum proteins by centrifugation (10,000 rpm, 5 minutes). The clear supernatant was analyzed by reversed phase HPLC, and the appropriate fractions were collected for identification using MALDI-TOF. Proteolysis kinetics of the peptides was analyzed by following the decrease in the concentration of the intact peptide as a function of time. The t1/2 half-lives of peptides were calculated.

[6] = after ip injection, 2 h, brain homogenate fluorescence vs standard
AMY1 = biological target: T1, AMY1 (Homo sapiens, UniProt O60894+P30988); assay: Peptide array-cell binding assay, AMY1 transfected cells; settings: membrane screening AMY1-3 subtypes
T1 construct: expressed in transfected cells
T1 sequence (P30988 25-474): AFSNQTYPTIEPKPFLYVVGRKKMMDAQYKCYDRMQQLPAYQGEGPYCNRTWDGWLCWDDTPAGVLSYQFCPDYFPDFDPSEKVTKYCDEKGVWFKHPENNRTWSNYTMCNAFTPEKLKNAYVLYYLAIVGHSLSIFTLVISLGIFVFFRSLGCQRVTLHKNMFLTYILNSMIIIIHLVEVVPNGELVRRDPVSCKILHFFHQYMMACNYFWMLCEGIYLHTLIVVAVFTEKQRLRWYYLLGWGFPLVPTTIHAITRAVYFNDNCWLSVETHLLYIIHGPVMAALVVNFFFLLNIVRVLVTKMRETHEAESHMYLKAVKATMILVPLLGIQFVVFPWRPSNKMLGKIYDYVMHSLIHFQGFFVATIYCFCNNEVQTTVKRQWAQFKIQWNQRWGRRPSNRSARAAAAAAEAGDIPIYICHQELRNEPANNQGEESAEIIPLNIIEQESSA
T1 sequence (O60894 27-148 partner): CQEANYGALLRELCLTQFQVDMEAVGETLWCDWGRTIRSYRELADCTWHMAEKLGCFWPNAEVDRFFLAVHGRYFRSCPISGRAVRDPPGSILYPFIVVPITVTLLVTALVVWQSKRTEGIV

Compound: C[N+]1=C(C=CC=CC=C2N(CCCCCC(=O)ON3C(=O)CCC3=O)c3ccc4ccccc4c3C2(C)C)C(C)(C)c2c1ccc1ccccc21.[Cl-] [Cy5 dye, Cyanine5.5 NHS ester dye, reference compound]
- ability to penetrate the blood brain barrier [1]: could not on its own cross the BBB

Compound: Cy5-cAC253: cAC253 with extra β-alanine spacer, N-terminally labeled with near-infrared dye Cy5.5-NHS ester ({Cy5.5-βAla}-[dC]LGRLSQELHRLQTYPRTNTGSNTY[dC]-NH2; disulfide 1-26)
- half-life of brain fluorescence signal ([2]; mouse, in vivo, ip, 20 mg/kg): 16 h

Compound: CC(C)C[C@@H]1NC(=O)[C@H](N)CSSC[C@H](C(N)=O)NC(=O)[C@H](Cc2ccc(O)cc2)NC(=O)[C@H]([C@@H](C)O)NC(=O)[C@H](CC(N)=O)NC(=O)[C@H](CO)NC(=O)CNC(=O)[C@H]([C@@H](C)O)NC(=O)[C@H](CC(N)=O)NC(=O)[C@H]([C@@H](C)O)NC(=O)[C@H](CCCNC(=N)N)NC(=O)[C@@H]2CCCN2C(=O)[C@H](Cc2ccc(O)cc2)NC(=O)[C@H]([C@@H](C)O)NC(=O)[C@H](CCC(N)=O)NC(=O)[C@H](CC(C)C)NC(=O)[C@H](CCCNC(=N)N)NC(=O)[C@H](Cc2c[nH]cn2)NC(=O)[C@H](CC(C)C)NC(=O)[C@H](CCC(=O)O)NC(=O)[C@H](CCC(N)=O)NC(=O)[C@H](CO)NC(=O)[C@H](CC(C)C)NC(=O)[C@H](CCCNC(=N)N)NC(=O)CNC1=O [cAC253] (H-[dC]LGRLSQELHRLQTYPRTNTGSNTY[dC]-NH2; disulfide 1-26; N-terminus assumed)
- logP ([3]; 1-octanol/water shake flask, read-out: log P): -1.05
- Partition coefficient ([3]; Table 2, 1-octanol/PBS shake flask): 1.22
- ex-vivo brain fluorescence signal relative to saline injection ([1]; 2 h post ip injection, 0.1 mmol in 200 μl saline): 2.8 fold
- further increase of brain fluorescence level at 6 h ([1]; 6 h post-ip injection, 0.01 mmol): 20%
- ability to penetrate the blood brain barrier [1]: penetrate the blood brain barrier
- reduction of brain fluorescence signal by excess unlabeled cAC253 [4]: 75%
- bio-distribution in organs ([2]; 2 h after injecting 20 mg/kg): mainly observed in the eliminating organs such as kidneys, liver and in the injection sites (intestine)
- stability in human serum relative to AC253 [5]: seven-fold increase
- stability in human serum relative to AC253 ([5]; listed as Cyclic-AC253): 7 times
- half-life ([5]; human, serum, RP-HPLC of intact peptide): 7 h
- brain concentration [6]: 10 to 100 nM

Compound: RLQTYPRTNTGS (RLQTYPRTNTGS-NH2) [R10]
- binding to AMY1 cells on peptide array (fluorescence) (AMY1): AMY1 specific peptide

Compound: CC[C@H](C)[C@H](NC(=O)[C@H](C)NC(=O)[C@@H](N)Cc1c[nH]cn1)C(=O)N[C@@H](Cc1ccc(O)cc1)C(=O)N1CCC[C@H]1C(=O)N[C@@H](CCCNC(=N)N)C(=O)N[C@@H](Cc1c[nH]cn1)C(N)=O [T7, HAIYPRH, reference compound]
- clearance from the brain at 6 h ([1]; mouse, in vivo, ip): rapid clearance from the brain
